Experiments:
Format in all cases: in vivo
Eleusine indica = assay: Glasshouse experiment 3, % inhibition of growth (fresh weight, 19 days)
Protocol: (§1) A series of experiments was carried out to determine the nature of the biological interaction between bromoxynil and five compounds of general formula I on a range of weed species. The 3-benzoyl-piperidine-2,4-dione derivatives were compounds 1, 74, 99, 110 and 126. […] The growth stages of the plants at spraying are also presented with the results. Agricultural surfactant (nonyl phenol ethylene oxide condensate containing 9 moles ethylene oxide marketed as 'Agral') was added to all spray dilutions to give 0.2% v/v concentration.
(§2) After spraying the pots were arranged in randomised blocks in a glasshouse and watered as necessary. After 19 days the fresh weight of vegetation in each pot was determined. The mean fresh weights were used to calculate the percentage inhibition of each species thus [formula]
(§3) E = X + Y […] where E, X and Y are percentage inhibition of growth.
(§4) The ED values were then used to plot an isobole for each species according to the method of P.M.L. Tammes op cit. The results of percentage inhibition of growth, the ED values calculated from them and the calculated expected values are given in Tables 1-8.

Abutilon theophrasti = assay: as above; conditions: for % inhibition of growth Abutilon theophrasti 1-2 leaves: Compound 126 0 g/ha; for ED₅₀ Abutilon theophrasti 1-2 leaves: applied alone
Protocol: as §1, §2, §3, §4

Brassica kaber = assay: as above; conditions: for % inhibition of growth Brassica kaber 2-3 leaves: Compound 126 0 g/ha; for ED₉₀ Brassica kaber 2-3 leaves: applied alone
Protocol: as §1, §2, §3, §4

Digitaria sanguinalis = assay: as above; conditions: for ED₅₀: 3-4 leaves; for ED₉₀: 3 leaves
Protocol: as §1, §2, §3, §4

Solanum nigrum = assay: as above; conditions: 2-3 leaves
Protocol: as §1, §2, §3, §4

Echinochloa crus-galli [1] = assay: as above; conditions: 3 leaves
Protocol: as §1, §2, §3, §4

Amaranthus retroflexus = assay: as above; conditions: for % inhibition of growth Amaranthus retroflexus 2-4 leaves: Compound 126 0 g/ha; for ED₉₀ Amaranthus retroflexus 2-4 leaves: applied alone
Protocol: as §1, §2, §3, §4

Chenopodium album = assay: as above; conditions: 2-6 leaves
Protocol: as §1, §2, §3, §4

Echinochloa crus-galli [2] = assay: Glasshouse experiment 2, percentage phytotoxicity after 19 days
Protocol: Agricultural surfactant-nonylphenol ethylene oxide condensate containing 9 moles ethylene oxide was added to all spray dilutions to give 0.2% v/v concentration.
After spraying, the pots were arranged in randomised blocks in a glasshouse, watered as necessary, and assessed after 19 days for percentage phytotoxicity (reduction in green area compared with unsprayed plants) (0 = no effect; 100 = complete destruction).
The results were then used to plot an isobole with a "one-sided effect" according to the methods of P.M.L. Tammes op.cit.

[3] = tested on: Brachiaria plantaginea (BRAPL); assay: Field experiment, post-emergence spray, % control of grass weed; conditions: 29 days after application
Protocol: (§5) The following control figures were recorded on the grass weeds Brachiaria plantaginea (BRAPL), Digitaria horizontalis (DIGHO) and Eleusine indica (ELEIN) 29 days after application.

[4] = tested on: Digitaria horizontalis (DIGHO); assay: as above; conditions: 29 days after application
Protocol: as §5

Eleusine indica (ELEIN) = assay: as above; conditions: 29 days after application
Protocol: as §5

maize var. Irla = assay: Glasshouse experiment 4, percentage phytotoxicity on crop after 11 days; conditions: for % crop phytotoxicity Maize (3-4 leaves): Bromoxynil 0 g/ha; for ED₂₀ crop phytotoxicity Maize (3-4 leaves): applied alone
Protocol: Agricultural surfactant ('Agral') was added to the spray dilutions to give 0.2%v/v concentration.
After spraying the pots were arranged in randomised blocks in a glasshouse and water as necessary. After 11 days the plants were assessed for percentage phytotoxicity (reduction in green area compared with unsprayed plants (0 = no effect 100 = complete destruction).
E = X + Y […] where E, X and Y are percentage phytotoxicity.
The ED values were then used to plot an isobole for each mixture according to the method of P.M.L. Tammes op cit.

[5] = Bromoxynil alone, 2 leaves, Table 6
[6] = Bromoxynil alone, 2 leaves, Table 7
[7] = Bromoxynil alone 2,4,8,16,31 g/ha
[8] = Abutilon theophrasti, read-out: % inhibition of growth Abutilon theophrasti 1-2 leaves
[9] = Mutarda arvensis, read-out: % inhibition of growth Brassica kaber 2-3 leaves
[10] = Amaranthus retroflexus, read-out: % inhibition of growth Amaranthus retroflexus 2-4 leaves

N#Cc1cc(Br)c(O)c(Br)c1 [Bromoxynil, 3,5-dibromo-4-hydroxybenzonitrile]
ED₉₀ (Eleusine indica; Bromoxynil alone, 3-4 leaves, Table 2): ED₉₀ (g/ha) ∞ | ED₉₀ (Eleusine indica; Bromoxynil alone, 3 leaves, Table 3): ED₉₀(g/ha) ∞ | ED₉₀ (Abutilon theophrasti; Bromoxynil alone, 1-2 leaves, Table 5): ED₉₀(g/ha) 119.9 | ED₉₀ (Abutilon theophrasti; Bromoxynil alone, 1-2 leaves, Table 6): ED₉₀(g/ha) 129.6 | ED₅₀ (Abutilon theophrasti; Bromoxynil alone, 1-2 leaves, Table 7): ED₅₀(g/ha) 78.6 | ED₅₀ (Abutilon theophrasti; Bromoxynil alone, 3 leaves, Table 1): ED₅₀(g/ha) 106.3 | % inhibition of growth Abutilon theophrasti 1-2 leaves (Abutilon theophrasti; Bromoxynil 18 g/ha): 0% | % inhibition of growth Abutilon theophrasti 1-2 leaves (Abutilon theophrasti; Bromoxynil 35 g/ha): 13% | % inhibition of growth Abutilon theophrasti 1-2 leaves (Abutilon theophrasti; Bromoxynil 70 g/ha): 44% | % inhibition of growth Abutilon theophrasti 1-2 leaves (Abutilon theophrasti; Bromoxynil 140 g/ha): 96% | % inhibition of growth Abutilon theophrasti 1-2 leaves (Abutilon theophrasti; Bromoxynil 280 g/ha): 99% | ED₅₀ Abutilon theophrasti 1-2 leaves (Abutilon theophrasti): ED₅₀(g/ha) 135.7 | ED₉₀ (Brassica kaber; Bromoxynil alone, 2-3 leaves, Table 1): ED₉₀(g/ha) 67.0 | ED₉₀ (Brassica kaber; [5]): ED₉₀(g/ha) 42.7 | ED₉₀ (Brassica kaber; [6]): ED₉₀(g/ha) 63.9 | % inhibition of growth Brassica kaber 2-3 leaves (Brassica kaber; Bromoxynil 18 g/ha): 30% | % inhibition of growth Brassica kaber 2-3 leaves (Brassica kaber; Bromoxynil 35 g/ha): 55% | % inhibition of growth Brassica kaber 2-3 leaves (Brassica kaber; Bromoxynil 70 g/ha): 82% | % inhibition of growth Brassica kaber 2-3 leaves (Brassica kaber; Bromoxynil 140 g/ha): 97% | % inhibition of growth Brassica kaber 2-3 leaves (Brassica kaber; Bromoxynil 280 g/ha): 98% | ED₉₀ Brassica kaber 2-3 leaves (Brassica kaber): ED₉₀(g/ha) 102.4 | ED₅₀ (Digitaria sanguinalis; Bromoxynil alone, Table 2): ED₅₀ (g/ha) ∞ | ED₉₀ (Digitaria sanguinalis; Bromoxynil alone, Table 3): ED₉₀(g/ha) ∞ | % inhibition of growth (Solanum nigrum; [7]): 91% | ED₉₀ (Solanum nigrum; Bromoxynil alone): ED₉₀(g/ha) 21.27 | ED₉₀ (Echinochloa crus-galli [1]; Bromoxynil alone, Table 3): ED₉₀(g/ha) ∞ | ED₉₀ (Amaranthus retroflexus; Bromoxynil alone, 2 leaves, Table 1): ED₉₀(g/ha) 120.3 | ED₉₀ (Amaranthus retroflexus; Bromoxynil alone, 2 leaves, Table 5): ED₉₀(g/ha) 142.8 | ED₉₀ (Amaranthus retroflexus; [5]): ED₉₀(g/ha) 142.9 | ED₉₀ (Amaranthus retroflexus; [6]): ED₉₀(g/ha) 246.2 | % inhibition of growth Amaranthus retroflexus 2-4 leaves (Amaranthus retroflexus; Bromoxynil 18 g/ha): 0% | % inhibition of growth Amaranthus retroflexus 2-4 leaves (Amaranthus retroflexus; Bromoxynil 35 g/ha): 4% | % inhibition of growth Amaranthus retroflexus 2-4 leaves (Amaranthus retroflexus; Bromoxynil 70 g/ha): 8% | % inhibition of growth Amaranthus retroflexus 2-4 leaves (Amaranthus retroflexus; Bromoxynil 140 g/ha): 84% | % inhibition of growth Amaranthus retroflexus 2-4 leaves (Amaranthus retroflexus; Bromoxynil 280 g/ha): 90% | ED₉₀ Amaranthus retroflexus 2-4 leaves (Amaranthus retroflexus): ED₉₀(g/ha) 233.3 | % inhibition of growth (Chenopodium album; [7]): 21% | ED₉₀ (Chenopodium album; Bromoxynil alone): ED₉₀(g/ha) 69.34 | activity on Echinochloa crus-galli (Echinochloa crus-galli [2]; applied alone): no activity | % control observed ([3]; Bromoxynil 250g/ha): 0% | % control observed ([4]; Bromoxynil 250g/ha): 0% | % control observed (Eleusine indica (ELEIN); Bromoxynil 250g/ha): 0%

CC1(C)CC(=O)C(C(=O)c2ccc(Cl)cc2[N+](=O)[O-])C(=O)N1 (stereo not shown) [Compound 1, 3-(4-chloro-2-nitrobenzoyl)-6,6-dimethylpiperidine-2,4-dione]
ED₉₀ (Eleusine indica; Compound 1 alone, 3-4 leaves): ED₉₀ (g/ha) 66.8 | ED₅₀ (Abutilon theophrasti; Compound 1 alone, 3 leaves): ED₅₀(g/ha) 21.1 | ED₉₀ (Brassica kaber; Compound 1 alone, 2-3 leaves): ED₉₀(g/ha) 58.1 | ED₅₀ (Digitaria sanguinalis; Compound 1 alone): ED₅₀ (g/ha) 21.6 | ED₉₀ (Amaranthus retroflexus; Compound 1 alone, 2 leaves): ED₉₀(g/ha) 21.6 | % control observed ([3]; Compound 1 @ 250g/ha): 60% | % control observed ([3]; Compound 1 @ 500g/ha): 80% | % control observed ([4]; Compound 1 @ 250g/ha): 70% | % control observed ([4]; Compound 1 @ 500g/ha): 80% | % control observed (Eleusine indica (ELEIN); Compound 1 @ 250g/ha): 70% | % control observed (Eleusine indica (ELEIN); Compound 1 @ 500g/ha): 80%

O=C1CCNC(=O)C1C(=O)c1ccc(C(F)(F)F)cc1[N+](=O)[O-] (stereo not shown) [Compound 74, 3-(2-nitro-4-trifluoromethylbenzoyl)piperidine-2,4-dione]
ED₉₀ (Eleusine indica; Compound 74 alone, 3 leaves): ED₉₀(g/ha) 260.4 | ED₉₀ (Abutilon theophrasti; Compound 74 alone, 1-2 leaves): ED₉₀(g/ha) 125.6 | ED₉₀ (Digitaria sanguinalis; Compound 74 alone): ED₉₀(g/ha) 180.4 | ED₉₀ (Solanum nigrum; Compound 74 alone): ED₉₀(g/ha) 21.45 | ED₉₀ (Echinochloa crus-galli [1]; Compound 74 alone): ED₉₀(g/ha) 168.6 | ED₉₀ (Amaranthus retroflexus; Compound 74 alone, 2 leaves): ED₉₀(g/ha) 22.1 | ED₉₀ (Chenopodium album; Compound 74 alone): ED₉₀(g/ha) 3.67 | ED₉₀ (Echinochloa crus-galli [2]; Compound 74 alone, dose giving 90% phytotoxicity): 82 g/ha | % crop phytotoxicity Maize (3-4 leaves) (maize var. Irla; Compound (74 or 99) 63 g/ha): 0% | % crop phytotoxicity Maize (3-4 leaves) (maize var. Irla; Compound (74 or 99) 125 g/ha): 0% | % crop phytotoxicity Maize (3-4 leaves) (maize var. Irla; Compound (74 or 99) 250 g/ha): 3% | % crop phytotoxicity Maize (3-4 leaves) (maize var. Irla; Compound (74 or 99) 500 g/ha): 6% | % crop phytotoxicity Maize (3-4 leaves) (maize var. Irla; Compound (74 or 99) 1000 g/ha): 17% | % crop phytotoxicity Maize (3-4 leaves) (maize var. Irla; Compound (74 or 99) 2000 g/ha): 63% | ED₂₀ crop phytotoxicity Maize (3-4 leaves) (maize var. Irla): ED₂₀(g/ha) 780

CC1(C)CC(=O)C(C(=O)c2ccc(C(F)(F)F)cc2[N+](=O)[O-])C(=O)N1 (stereo not shown) [Compound 99, 3-(2-nitro-4-trifluoromethylbenzoyl)-6,6-dimethylpiperidine-2,4-dione]
ED₉₀ (Abutilon theophrasti; Compound 99 alone, 1-2 leaves): ED₉₀(g/ha) 23.6 | ED₉₀ (Brassica kaber; Compound 99 alone, 2 leaves): ED₉₀(g/ha) 54.9 | ED₉₀ (Amaranthus retroflexus; Compound 99 alone, 2 leaves): ED₉₀(g/ha) 16.8 | % crop phytotoxicity Maize (3-4 leaves) (maize var. Irla; Compound (74 or 99) 63 g/ha): 0% | % crop phytotoxicity Maize (3-4 leaves) (maize var. Irla; Compound (74 or 99) 125 g/ha): 0% | % crop phytotoxicity Maize (3-4 leaves) (maize var. Irla; Compound (74 or 99) 250 g/ha): 0% | % crop phytotoxicity Maize (3-4 leaves) (maize var. Irla; Compound (74 or 99) 500 g/ha): 4% | % crop phytotoxicity Maize (3-4 leaves) (maize var. Irla; Compound (74 or 99) 1000 g/ha): 50% | % crop phytotoxicity Maize (3-4 leaves) (maize var. Irla; Compound (74 or 99) 2000 g/ha): 51% | ED₂₀ crop phytotoxicity Maize (3-4 leaves) (maize var. Irla): ED₂₀(g/ha) 797

CS(=O)(=O)c1ccc(C(=O)C2C(=O)CCNC2=O)c([N+](=O)[O-])c1 (stereo not shown) [Compound 110, 3-(4-methylsulphonyl-2-nitrobenzoyl)piperidine-2,4-dione]
ED₅₀ (Abutilon theophrasti; Compound 110 alone, 1-2 leaves): ED₅₀(g/ha) 22.3 | ED₉₀ (Brassica kaber; Compound 110 alone, 2 leaves): ED₉₀(g/ha) 13.6 | % inhibition of growth (Amaranthus retroflexus; Compound 110 alone 1,2,4,8,16,31,63 g/ha, 2 leaves): 100% | ED₉₀ (Amaranthus retroflexus; Compound 110 alone, 2 leaves): ED₉₀(g/ha) 12.6

CS(=O)(=O)c1ccc(C(=O)C2C(=O)CCNC2=O)c(Cl)c1 (stereo not shown) [Compound 126, 3-(2-chloro-4-methylsulphonylbenzoyl)piperidine-2,4-dione]
inhibition at 1 g/ha (Abutilon theophrasti; [8]): 0% | inhibition at 2 g/ha (Abutilon theophrasti; [8]): 38% | inhibition at 4 g/ha (Abutilon theophrasti; [8]): 56% | inhibition at 8 g/ha (Abutilon theophrasti; [8]): 68% | inhibition at 16 g/ha (Abutilon theophrasti; [8]): 88% | inhibition at 31 g/ha (Abutilon theophrasti; [8]): 94% | inhibition at 63 g/ha (Abutilon theophrasti; [8]): 96% | ED₅₀ Abutilon theophrasti 1-2 leaves (Abutilon theophrasti): ED₅₀(g/ha) 20.1 | inhibition at 1 g/ha (Brassica kaber; [9]): 0% | inhibition at 2 g/ha (Brassica kaber; [9]): 0% | inhibition at 4 g/ha (Brassica kaber; [9]): 0% | inhibition at 8 g/ha (Brassica kaber; [9]): 17% | inhibition at 16 g/ha (Brassica kaber; [9]): 26% | inhibition at 31 g/ha (Brassica kaber; [9]): 48% | inhibition at 63 g/ha (Brassica kaber; [9]): 80% | ED₉₀ Brassica kaber 2-3 leaves (Brassica kaber): ED₉₀(g/ha) 90.6 | inhibition at 1 g/ha (Amaranthus retroflexus; [10]): 0% | inhibition at 2 g/ha (Amaranthus retroflexus; [10]): 50% | inhibition at 4 g/ha (Amaranthus retroflexus; [10]): 91% | inhibition at 8 g/ha (Amaranthus retroflexus; [10]): 91% | inhibition at 16 g/ha (Amaranthus retroflexus; [10]): 99% | inhibition at 31 g/ha (Amaranthus retroflexus; [10]): 100% | inhibition at 63 g/ha (Amaranthus retroflexus; [10]): 100% | ED₉₀ Amaranthus retroflexus 2-4 leaves (Amaranthus retroflexus): ED₉₀(g/ha) 7.6
